Experimental data reported in US5925632A, “Derivatives of 3-pyrrolidylidene-2-one-cephalsporines” (Hoffmann-La Roche Inc., priority 1995, dated 1999).
In brackets after ≈: the same amount, converted by molar mass. Where a name gives a salt, the structure may show the parent alone. Blank lines part the entries; values can stand above or below the compound they belong to.

Key:
Test in all cases: MIC, agar dilution method in Mueller Hinton agar
Type in all cases: cell-based
[1] = system: Actinetobacter sp. 51-156; conditions: read-out: MIC (Minimum Inhibiting Concentration)
Protocol: (§1) In vitro activity was determined by minimum inhibitory concentration in a microorganism spectum by the agar dilution method in Mueller Hinton agar.

C. freundii 43 = conditions: Citrobacter freundii, read-out: MIC (Minimum Inhibiting Concentration)
Protocol: as §1

C. freundii 902 = conditions: Citrobacter freundii, read-out: MIC (Minimum Inhibiting Concentration)
Protocol: as §1

E. cloacae 908R = conditions: Enterobacter cloacae, read-out: MIC (Minimum Inhibiting Concentration)
Protocol: as §1

E. cloacae 908SSi = conditions: Enterobacter cloacae, read-out: MIC (Minimum Inhibiting Concentration)
Protocol: as §1

E. coli 25922 = conditions: Escherichia coli, read-out: MIC (Minimum Inhibiting Concentration)
Protocol: as §1

E. faecalis 6 = conditions: Enterococcus faecalis, read-out: MIC (Minimum Inhibiting Concentration)
Protocol: as §1

H. influenzae 1 = conditions: Haemophilus influenzae, read-out: MIC (Minimum Inhibiting Concentration)
Protocol: as §1

K. pneumoniae 418 = conditions: Klebsiella pneumoniae, read-out: MIC (Minimum Inhibiting Concentration)
Protocol: as §1

L. monocytogenes BK23 = conditions: Listeria monocytogenes, read-out: MIC (Minimum Inhibiting Concentration)
Protocol: as §1

M. catarrhalis RA21 = conditions: Moraxella catarrhalis, read-out: MIC (Minimum Inhibiting Concentration)
Protocol: as §1

M. morganii 6H-137 = conditions: Morganella morganii, 6H137, read-out: MIC (Minimum Inhibiting Concentration)
Protocol: as §1

N. meningitidis 69480 = conditions: Neisseria meningitidis, read-out: MIC (Minimum Inhibiting Concentration)
Protocol: as §1

P. aeruginosa 27853 = conditions: Pseudomonas aeruginosa, read-out: MIC (Minimum Inhibiting Concentration)
Protocol: as §1

P. mirabilis 2117 = conditions: Proteus mirabilis, read-out: MIC (Minimum Inhibiting Concentration)
Protocol: as §1

P. vulgaris 1028 = conditions: Proteus vulgaris, read-out: MIC (Minimum Inhibiting Concentration)
Protocol: as §1

S. agalactiae QK44 = conditions: Streptococcus agalactiae, read-out: MIC (Minimum Inhibiting Concentration)
Protocol: as §1

S. aureus 6538 = conditions: Staphylococcus aureus, read-out: MIC (Minimum Inhibiting Concentration)
Protocol: as §1

S. aureus 734 MRSA = conditions: Staphylococcus aureus, read-out: MIC (Minimum Inhibiting Concentration)
Protocol: as §1

S. marcescens 69438 = conditions: Serratia marcescens, read-out: MIC (Minimum Inhibiting Concentration)
Protocol: as §1

S. pneumoniae Q19 = conditions: Streptococcus pneumoniae, read-out: MIC (Minimum Inhibiting Concentration)
Protocol: as §1

S. pyogenes B15 = conditions: Streptococcus pyogenes, read-out: MIC (Minimum Inhibiting Concentration)
Protocol: as §1

S. viridans group 016 = conditions: Streptococcus viridans, GROUP016, read-out: MIC (Minimum Inhibiting Concentration)
Protocol: as §1

X. maltophilia 1AC739 = conditions: Stenotrophomonas maltophilia, read-out: MIC (Minimum Inhibiting Concentration)
Protocol: as §1

Compound: C=CC1=C(C(=O)O)N2C(=O)[C@@H](NC(=O)/C(=N\O)c3csc(N)n3)[C@H]2SC1 [Cefdinir, reference compound]
MIC [1]: > 32 µg/mL
MIC (C. freundii 43): > 32 µg/mL
MIC (C. freundii 902): 16 µg/mL (≈ 40.5 µM)
MIC (E. cloacae 908R): > 32 µg/mL
MIC (E. cloacae 908SSi): 32 µg/mL (≈ 80.9 µM)
MIC (E. coli 25922): 0.25 µg/mL (≈ 0.632 µM)
MIC (E. faecalis 6): 8 µg/mL (≈ 20.2 µM)
MIC (H. influenzae 1): 0.5 µg/mL (≈ 1.26 µM)
MIC (K. pneumoniae 418): 0.12 µg/mL (≈ 0.303 µM)
MIC (L. monocytogenes BK23): 16 µg/mL (≈ 40.5 µM)
MIC (M. catarrhalis RA21): 1 µg/mL (≈ 2.53 µM)
MIC (M. morganii 6H-137): 8 µg/mL (≈ 20.2 µM)
MIC (N. meningitidis 69480): ≤ 0.06 µg/mL
MIC (P. aeruginosa 27853): > 32 µg/mL
MIC (P. mirabilis 2117): 0.12 µg/mL (≈ 0.303 µM)
MIC (P. vulgaris 1028): 1 µg/mL (≈ 2.53 µM)
MIC (S. agalactiae QK44): 0.25 µg/mL (≈ 0.632 µM)
MIC (S. aureus 6538): 0.5 µg/mL (≈ 1.26 µM)
MIC (S. aureus 734 MRSA): > 32 µg/mL
MIC (S. marcescens 69438): 16 µg/mL (≈ 40.5 µM)
MIC (S. pneumoniae Q19): 0.25 µg/mL (≈ 0.632 µM)
MIC (S. pyogenes B15): ≤ 0.06 µg/mL
MIC (S. viridans group 016): 2 µg/mL (≈ 5.06 µM)
MIC (X. maltophilia 1AC739): > 32 µg/mL

Compound: CC(C)CN1CC/C(=C\C2=C(C(=O)O)N3C(=O)[C@@H](NC(=O)/C(=N\O)c4csc(N)n4)[C@H]3SC2)C1=O.O=C(O)C(F)(F)F [A, (6R,7R)-7-[(Z)-2-(2-amino-thiazol-4-yl)-2-hydroxyiminoacetylamino]-3-[(E)-1-isobutyl-2-oxo-pyrrolidin-3-ylidenemethyl]-8-oxo-5-thia-1-azabicyclo[4.2.0]oct-2-ene-2-carboxylic acid trifluoroacetate]
MIC [1]: 16 µg/mL
MIC (C. freundii 43): 4 µg/mL
MIC (C. freundii 902): 0.25 µg/mL
MIC (E. cloacae 908R): 16 µg/mL
MIC (E. cloacae 908SSi): 0.5 µg/mL
MIC (E. coli 25922): 0.25 µg/mL
MIC (E. faecalis 6): 1 µg/mL
MIC (K. pneumoniae 418): 0.5 µg/mL
MIC (L. monocytogenes BK23): 4 µg/mL
MIC (M. catarrhalis RA21): 1 µg/mL
MIC (M. morganii 6H-137): 0.25 µg/mL
MIC (P. mirabilis 2117): 0.25 µg/mL
MIC (S. agalactiae QK44): 0.25 µg/mL
MIC (S. aureus 6538): 1 µg/mL
MIC (S. aureus 734 MRSA): 4 µg/mL
MIC (S. marcescens 69438): 1 µg/mL
MIC (S. pneumoniae Q19): ≤ 0.06 µg/mL
MIC (S. pyogenes B15): ≤ 0.06 µg/mL
MIC (S. viridans group 016): ≤ 0.06 µg/mL
MIC (X. maltophilia 1AC739): > 32 µg/mL

Compound: Nc1nc(/C(=N/O)C(=O)N[C@@H]2C(=O)N3C(C(=O)O)=C(/C=C4\CCN(CC5CCCCC5)C4=O)CS[C@H]23)cs1 [C, (6R,7R)-7-[(Z)-2-(2-amino-thiazol-4-yl)-2-(hydroxyiminoacetylamino]-3-[(E)-1-cyclohexylmethyl-2-oxo-pyrrolidin-3-ylidenemethyl]-8-oxo-5-thia-1-azabicyclo[4.2.0]oct-2-ene-2-carboxylic acid trifluoroacetate]
MIC [1]: 16 µg/mL
MIC (C. freundii 43): 8 µg/mL
MIC (C. freundii 902): 1 µg/mL
MIC (E. cloacae 908R): 16 µg/mL
MIC (E. cloacae 908SSi): 2 µg/mL
MIC (E. coli 25922): 1 µg/mL
MIC (E. faecalis 6): 2 µg/mL
MIC (K. pneumoniae 418): 1 µg/mL
MIC (L. monocytogenes BK23): 4 µg/mL
MIC (M. catarrhalis RA21): 16 µg/mL
MIC (M. morganii 6H-137): 4 µg/mL
MIC (P. mirabilis 2117): 0.5 µg/mL
MIC (P. vulgaris 1028): 0.5 µg/mL
MIC (S. agalactiae QK44): 0.25 µg/mL
MIC (S. aureus 6538): 1 µg/mL
MIC (S. aureus 734 MRSA): 8 µg/mL
MIC (S. marcescens 69438): 4 µg/mL
MIC (S. pneumoniae Q19): ≤ 0.06 µg/mL
MIC (S. pyogenes B15): ≤ 0.06 µg/mL
MIC (S. viridans group 016): 0.5 µg/mL
MIC (X. maltophilia 1AC739): > 32 µg/mL

More lines, in order of falling MIC [1], values ahead:

MIC [1]: 32 µg/mL
MIC (C. freundii 43): 8 µg/mL
MIC (C. freundii 902): 1 µg/mL
MIC (E. cloacae 908R): 32 µg/mL
MIC (E. cloacae 908SSi): 2 µg/mL
MIC (E. coli 25922): 1 µg/mL
MIC (E. faecalis 6): 2 µg/mL
MIC (K. pneumoniae 418): 1 µg/mL
MIC (L. monocytogenes BK23): 4 µg/mL
MIC (M. catarrhalis RA21): 16 µg/mL
MIC (M. morganii 6H-137): 0.5 µg/mL
MIC (P. mirabilis 2117): 0.25 µg/mL
MIC (P. vulgaris 1028): 4 µg/mL
MIC (S. agalactiae QK44): 0.5 µg/mL
MIC (S. aureus 6538): 1 µg/mL
MIC (S. aureus 734 MRSA): 16 µg/mL
MIC (S. marcescens 69438): 4 µg/mL
MIC (S. pneumoniae Q19): ≤ 0.06 µg/mL
MIC (S. pyogenes B15): ≤ 0.06 µg/mL
MIC (S. viridans group 016): 1 µg/mL
MIC (X. maltophilia 1AC739): > 32 µg/mL
Compound: CC(C)(C)CN1CC/C(=C\C2=C(C(=O)O)N3C(=O)[C@@H](NC(=O)/C(=N\O)c4csc(N)n4)[C@H]3SC2)C1=O [B, (6R,7R)-7-[(Z)-2-(2-amino-thiazol-4-yl)-2-(hydroxyiminoacetylamino]-3-[(E)-1-(2,2-dimethyl-propyl)-2-oxo-pyrrolidin-3-ylidenemethyl]-8-oxo-5-thia-1-azabicyclo[4.2.0]oct-2-ene-2-carboxylic acid trifluoroacetate]

MIC [1]: 32 µg/mL (≈ 57.7 µM)
MIC (C. freundii 43): 32 µg/mL (≈ 57.7 µM)
MIC (C. freundii 902): 0.25 µg/mL (≈ 0.451 µM)
MIC (E. cloacae 908R): > 32 µg/mL
MIC (E. cloacae 908SSi): 0.25 µg/mL (≈ 0.451 µM)
MIC (E. coli 25922): ≤ 0.06 µg/mL
MIC (E. faecalis 6): > 32 µg/mL
MIC (H. influenzae 1): ≤ 0.06 µg/mL
MIC (K. pneumoniae 418): ≤ 0.06 µg/mL
MIC (L. monocytogenes BK23): > 16 µg/mL
MIC (M. catarrhalis RA21): 1 µg/mL (≈ 1.8 µM)
MIC (M. morganii 6H-137): ≤ 0.06 µg/mL
MIC (N. meningitidis 69480): ≤ 0.01 µg/mL
MIC (P. aeruginosa 27853): 16 µg/mL (≈ 28.9 µM)
MIC (P. mirabilis 2117): ≤ 0.06 µg/mL
MIC (P. vulgaris 1028): 0.12 µg/mL (≈ 0.216 µM)
MIC (S. agalactiae QK44): ≤ 0.06 µg/mL
MIC (S. aureus 6538): 4 µg/mL (≈ 7.21 µM)
MIC (S. aureus 734 MRSA): > 32 µg/mL
MIC (S. marcescens 69438): 0.25 µg/mL (≈ 0.451 µM)
MIC (S. pneumoniae Q19): ≤ 0.06 µg/mL
MIC (S. pyogenes B15): ≤ 0.06 µg/mL
MIC (S. viridans group 016): 0.25 µg/mL (≈ 0.451 µM)
MIC (X. maltophilia 1AC739): > 32 µg/mL
Compound: CO/N=C(\C(=O)N[C@@H]1C(=O)N2C(C(=O)O)=C(CSc3nc(=O)c(=O)[nH]n3C)CS[C@H]12)c1csc(N)n1 [Ceftriaxone, [6R-[6a,7b(Z)]]-7-([[2-Amino-4-thiazolyl)(methoxyimino)acetyl]amino]-8-oxo-3-[[(1,2,5,6-tetrahydro-2-methyl-5,6dioxo-1,2,4-triazin-3-yl)thio]methyl]-5-thia-1-azabicyclo[4.2.0]oct-2-ene-2-carboxylic acid, reference compound]
